Results as given in patent US20080214648A1, “Hiv Prodrugs Cleavable by Cd26” (priority 2003, published 2008).

How the values were obtained:
[1] = target: purified CD26 (Homo sapiens, UniProt P27487); test: Conversion of Val-Pro-PI 1 to PI 1 by purified CD26; format: biochemical
Procedure: (§1) A: CD26; B: bovine serum; C: human serum (both 10% in PBS).
(§2) Ten percent BS or HS converted 40 to 70% of Val-Pro-PI 1 to PI 1 in one hour (FIG. 10). Two percent BS and HS converted Val-Pro-PI 1 to PI 1 by 8% and 25%, respectively. After 4 hrs, 35% and 95% of compound was hydrolyzed by BS and HS, respectively (FIG. 11).
(§3) Compounds were separated on a Reverse Phase RP-8 (Merck) using a gradient with buffer A (50 mM NaH2PO4+5 mM heptane sulfonic acid pH 3.2) and buffer B (acetonitrile).
(§4) 0→2 min: 2% buffer B; 2→8 min: 20% buffer B; 8→10 min: 25% buffer B; 10→12 min: 35% buffer B; 12→30 min: 50% buffer B; 30→35 min: 50% buffer B; 35→40 min: 2% buffer B; 40→45 min: 2% buffer B. Rt values of Val-Pro-PI 1 and PI 1 were 18.7 and 17.7 min, respectively.

[2] = Conversion of Val-Pro-PI 1 to PI 1 by bovine serum diluted in PBS; format: in vitro ADME; details: 2% bovine serum (BS) in PBS
Procedure: as §1
(§5) FIG. 3a: Bovine serum (2% in PBS), FIG. 3b: Human serum (2% in PBS).
as §2, §3, §4

[3] = Conversion of Val-Pro-PI 1 to PI 1 by human serum diluted in PBS; format: in vitro ADME; details: 2% human serum (HS) in PBS
Procedure: as §1, §5, §2, §3, §4

[4] = target: CD26 (Homo sapiens, UniProt P27487); test: Competitive inhibition of CD26-catalysed conversion of GP-pNA to GP+pNA (purified CD26); format: biochemical
CD26, sequence (P27487 whole entry, species assumed): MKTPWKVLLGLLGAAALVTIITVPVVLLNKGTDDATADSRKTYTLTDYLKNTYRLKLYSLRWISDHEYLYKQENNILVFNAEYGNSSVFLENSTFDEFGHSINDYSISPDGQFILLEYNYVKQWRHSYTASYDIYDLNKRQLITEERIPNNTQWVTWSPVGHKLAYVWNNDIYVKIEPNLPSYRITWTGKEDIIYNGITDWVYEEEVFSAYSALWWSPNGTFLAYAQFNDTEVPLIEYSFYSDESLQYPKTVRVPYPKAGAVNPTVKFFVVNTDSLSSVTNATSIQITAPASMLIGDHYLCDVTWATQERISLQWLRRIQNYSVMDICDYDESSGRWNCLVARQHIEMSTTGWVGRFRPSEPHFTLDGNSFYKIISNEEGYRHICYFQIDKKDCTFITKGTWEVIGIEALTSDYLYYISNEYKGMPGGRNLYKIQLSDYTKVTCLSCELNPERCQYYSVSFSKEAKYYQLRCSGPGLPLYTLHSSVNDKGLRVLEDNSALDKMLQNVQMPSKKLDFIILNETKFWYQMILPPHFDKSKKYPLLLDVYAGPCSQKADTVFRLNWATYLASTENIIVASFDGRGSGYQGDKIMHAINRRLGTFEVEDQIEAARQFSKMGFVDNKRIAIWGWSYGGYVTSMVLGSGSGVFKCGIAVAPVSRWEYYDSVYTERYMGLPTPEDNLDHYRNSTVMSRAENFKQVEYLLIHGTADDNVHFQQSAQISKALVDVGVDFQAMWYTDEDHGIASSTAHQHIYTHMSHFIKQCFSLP
Procedure: (§6) The CD26 catalytic reaction was measured by recording the increase of absorption caused by pNA release at 400 nm.

[5] = target: T1, CD26 in bovine serum (Bos taurus, UniProt P81425); test: Inhibition of GP-pNA conversion to pNA by 2% bovine serum in PBS; format: biochemical; details: 2% BS in PBS, compared with purified CD26
T1 construct: Conversion of GP-pNA to pNA by two percent BS in PBS; from tissue; host or cells: bovine serum, 2% in PBS
T1 sequence (P81425 38-765): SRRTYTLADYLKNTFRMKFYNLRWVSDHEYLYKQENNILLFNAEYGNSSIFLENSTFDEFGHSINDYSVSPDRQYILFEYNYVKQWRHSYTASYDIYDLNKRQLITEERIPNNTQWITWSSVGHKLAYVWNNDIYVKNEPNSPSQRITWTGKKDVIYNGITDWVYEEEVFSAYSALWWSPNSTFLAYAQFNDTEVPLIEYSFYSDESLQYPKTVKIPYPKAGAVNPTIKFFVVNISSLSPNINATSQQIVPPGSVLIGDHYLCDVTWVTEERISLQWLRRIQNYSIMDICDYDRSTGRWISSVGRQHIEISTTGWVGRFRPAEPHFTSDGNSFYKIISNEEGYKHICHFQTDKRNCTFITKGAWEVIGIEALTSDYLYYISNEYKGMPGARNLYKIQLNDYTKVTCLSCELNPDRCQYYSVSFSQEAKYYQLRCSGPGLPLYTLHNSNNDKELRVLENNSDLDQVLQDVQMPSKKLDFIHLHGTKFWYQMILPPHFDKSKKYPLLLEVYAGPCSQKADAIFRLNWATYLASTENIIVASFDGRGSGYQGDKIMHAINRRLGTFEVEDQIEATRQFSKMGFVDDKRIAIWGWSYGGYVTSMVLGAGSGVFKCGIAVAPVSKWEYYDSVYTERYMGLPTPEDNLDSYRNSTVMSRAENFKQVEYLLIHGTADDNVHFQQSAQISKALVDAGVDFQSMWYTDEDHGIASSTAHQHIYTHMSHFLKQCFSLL
Procedure: as §6

[6] = target: T2, CD26 in human serum (Homo sapiens, UniProt P27487); test: Inhibition of GP-pNA conversion to pNA by 2% human serum in PBS; format: biochemical; details: HS 2% in PBS
T2 construct: from tissue; host or cells: human serum, 2% in PBS
T2 sequence (P27487 39-766 limits assumed): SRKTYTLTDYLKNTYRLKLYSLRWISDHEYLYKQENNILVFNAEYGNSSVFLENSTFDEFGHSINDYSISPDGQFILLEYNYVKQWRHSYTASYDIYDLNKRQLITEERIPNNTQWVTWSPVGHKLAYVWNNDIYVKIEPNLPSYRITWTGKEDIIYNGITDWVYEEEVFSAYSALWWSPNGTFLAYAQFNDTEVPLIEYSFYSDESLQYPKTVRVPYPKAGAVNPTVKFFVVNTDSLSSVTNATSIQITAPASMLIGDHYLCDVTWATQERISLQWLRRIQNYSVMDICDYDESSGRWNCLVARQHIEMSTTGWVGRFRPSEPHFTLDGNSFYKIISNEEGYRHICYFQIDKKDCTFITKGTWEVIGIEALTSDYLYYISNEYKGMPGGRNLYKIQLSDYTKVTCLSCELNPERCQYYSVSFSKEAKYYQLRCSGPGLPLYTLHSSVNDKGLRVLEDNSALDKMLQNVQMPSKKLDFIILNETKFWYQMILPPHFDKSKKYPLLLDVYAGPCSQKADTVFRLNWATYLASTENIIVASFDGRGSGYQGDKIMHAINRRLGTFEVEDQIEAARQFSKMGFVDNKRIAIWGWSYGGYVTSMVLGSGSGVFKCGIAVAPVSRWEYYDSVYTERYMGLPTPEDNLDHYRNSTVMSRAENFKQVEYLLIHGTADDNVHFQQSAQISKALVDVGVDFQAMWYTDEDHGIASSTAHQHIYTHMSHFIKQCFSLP
Procedure: as §6

[7] = time not printed (preceding sentence: one hour)

purified CD26, sequence (P27487 whole entry, species assumed): as the sequence (P27487 whole entry, species assumed) above

CC(C)CN(C[C@@H](O)[C@H](Cc1ccccc1)NC(=O)O[C@H]1CO[C@H]2OCC[C@H]21)S(=O)(=O)c1ccc(CNC(=O)[C@@H]2CCCN2C(=O)[C@@H](N)C(C)C)cc1 [Val-Pro-PI 1]
time to complete conversion of Val-Pro-PI 1 to PI 1 [1]: ≤ 60 min | compound hydrolyzed ([2]; after 4 hrs): 35% | conversion of Val-Pro-PI 1 to PI 1 [2, 7]: 8% | compound hydrolyzed ([3]; after 4 hrs): 95% | conversion of Val-Pro-PI 1 to PI 1 [3, 7]: 25% | inhibition of release of pNA from GP-pNA ([4]; 20 μM Val-Pro-PI 1, 50 μM GP-pNA): could inhibit | competition with substrate GP-pNA for CD26 ([4]; 100 μM Val-Pro-PI 1, 50 μM GP-pNA): efficiently competed | inhibition of conversion of GP-pNA to pNA [5]: even more efficiently inhibited | inhibition of GP-pNA conversion to pNA [6]: competitively inhibited
